PMC6751662, “Pharmacological and functional similarities of the human neuropeptide Y system in C. elegans challenges phylogenetic views on the FLP/NPR system” (Cell Communication and Signaling : CCS, 2019)
Ends that are not written are not given here.

Assays:
[1] = Solubility of crude peptides in RP-HPLC purification solvents; assay type: physicochemical; conditions: for solubility of crude peptide: H2O + 0.1% TFA / acetonitrile + 0.08% TFA (RP-HPLC purification conditions); for solubility of crude peptide at basic pH: 10 mM (NH4)2CO3, pH 8.5, used for purification
Protocol: C-terminally amidated peptides were synthesized in 15 μmol scale by solid-phase peptide synthesis following the Fmoc/tert-butyl strategy (reviewed in [18]) on Rink amide resin using an automated Syro II peptide synthesizer (MultiSynTech). Automated coupling reactions were performed as double couplings using 8 eq Nα-protected amino acid, activated in situ with equimolar amounts of Oxyma and […] in dimethylformamide (DMF) for 30 min. Automated Fmoc deprotection was carried out with 40% (v/v) piperidine in DMF for 3 min and 20% (v/v) piperidine in DMF for 10 min. Reactive side chains of amino acids were protected by tert-butyl (tBu for Tyr, Ser, Asp, Glu, Thr), trityl (Trt for Asn, Gln, His), 2,2,4,6,7-pentamethyldihydrobenzofuran-5-sulfonyl (Pbf for Arg) and tert-butyloxycarbonyl (Boc for Lys). Peptides were cleaved off the resin using trifluoroacetic acid (TFA)/H2O/triisopropylsilane (90/5/5, v/v/v) for 2.5 h at room temperature and precipitated in ice cold diethyl ether. All peptides were purified to > 95% purity by RP-HPLC (Shimadzu) using a Phenomenex Jupiter 10 μm Proteo 90 Å (C12) column. For most peptides, linear gradients of H2O + 0.1% trifluoroacetic acid (TFA) (eluent A) and acetonitrile (ACN) + 0.08% TFA (eluent B) were applied at a flow rate of 10 ml/minute. […] FLP-27, FLP-33, and FLP-34 were solubilized by ultrasonication at 50 °C for 10 min and subsequently purified under standard solvent conditions used pre-heated HPLC systems. […] Peptide identity was verified by matrix-assisted laser desorption/time of flight (MALDI-ToF; Ultraflex III MALDI-ToF/ToF, Bruker Daltonics) mass spectrometry, and peptide purity was evaluated with analytical RP-HPLC.

QRFPR = target: T1, QRFPR (Homo sapiens, UniProt Q96P65); experiment: IP accumulation assay, endogenous Gαq coupling, QRFPR; assay type: cell-based; conditions: transiently transfected HEK293 cells, mean of at least three independent experiments
T1 construct: expressed in transfected cells; host or cells: HEK293, transient
T1 sequence (Q96P65 1-431): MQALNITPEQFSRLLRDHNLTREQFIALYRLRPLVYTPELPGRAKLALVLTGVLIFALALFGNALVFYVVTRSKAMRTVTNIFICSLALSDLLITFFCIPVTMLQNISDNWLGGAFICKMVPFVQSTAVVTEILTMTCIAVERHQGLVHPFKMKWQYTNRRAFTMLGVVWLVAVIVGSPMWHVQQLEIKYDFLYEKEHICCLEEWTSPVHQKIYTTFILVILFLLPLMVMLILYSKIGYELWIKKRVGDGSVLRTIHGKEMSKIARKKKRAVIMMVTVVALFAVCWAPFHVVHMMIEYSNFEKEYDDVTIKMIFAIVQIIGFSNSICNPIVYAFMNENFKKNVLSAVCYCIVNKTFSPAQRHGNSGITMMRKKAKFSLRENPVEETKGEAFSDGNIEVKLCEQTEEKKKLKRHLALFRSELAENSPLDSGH
Protocol: (§1) For measuring IP accumulation, HEK293 cells grown to 70–80% confluency in 6-well plates were transiently co-transfected using Metafectene Pro (2.5 μl/μg DNA; Biontex) with plasmids containing receptor and/or mock (empty pcDNA3.1) (for endogenous Gq-coupling) using 4 μg total DNA in a ratio of 3:1 following the manufacturer’s instructions. For testing Gα16- and GαΔ6qi4myr-coupling, plasmids encoding the corresponding Gα protein were co-transfected instead of mock. Gα16 is naturally promiscuous and stimulates the phospholipase C (PLC) pathway leading to IP production, while the exchange of the C-terminal four amino acids of Gαq for the corresponding residues of Gαi1 in the chimeric GαΔ6qi4myr confers the ability to couple to Gi/o protein-preferring receptors but still stimulate PLC, thus specifically redirecting downstream cellular signaling. 16 h post transfection, the cells were seeded into white 384-well plates at a density of 20,000 cells/well. Media was removed 24 h later and the cells were incubated with the indicated concentration of peptides for 1 h in HBSS + 20 mM LiCl. IP accumulation was measured with the HTRF-based IP-One Gq kit (Cisbio) on a microplate reader (Tecan Spark).
(§2) For in vitro activation, data is presented as mean ± SEM of at least three independent experiments conducted in technical triplicate. […] For the C. elegans NPRs, we considered the strongest response elicited by any of the peptides downstream of a particular receptor as the receptor’s maximal signal. This may or may not be the biological maximum that can be reached by the ‘true’ endogenous agonist. For the human receptors, the response to the established endogenous agonist reflected the maximal signal.

PrRPR = target: T2, PrRPR (Homo sapiens, UniProt P49683); experiment: IP accumulation assay, endogenous Gαq coupling, PrRPR; assay type: cell-based; conditions: transiently transfected HEK293 cells, mean of at least three independent experiments
T2 construct: expressed in transfected cells; host or cells: HEK293, transient
T2 sequence (P49683 1-370): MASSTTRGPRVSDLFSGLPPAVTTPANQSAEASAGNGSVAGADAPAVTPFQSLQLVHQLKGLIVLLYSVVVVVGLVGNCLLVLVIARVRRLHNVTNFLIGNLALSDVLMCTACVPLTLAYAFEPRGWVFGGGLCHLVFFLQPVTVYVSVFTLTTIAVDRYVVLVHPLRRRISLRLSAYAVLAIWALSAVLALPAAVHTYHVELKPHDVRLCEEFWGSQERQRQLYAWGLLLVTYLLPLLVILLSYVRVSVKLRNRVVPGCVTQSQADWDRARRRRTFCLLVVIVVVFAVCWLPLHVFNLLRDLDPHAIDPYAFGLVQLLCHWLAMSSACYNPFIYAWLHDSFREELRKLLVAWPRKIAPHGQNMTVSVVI
Protocol: as §1, §2

Y2R = target: T3, Y2R (Homo sapiens, UniProt P49146); experiment: IP accumulation assay, chimeric GαΔ6qi4myr, Y2R; assay type: cell-based; conditions: chimeric GαΔ6qi4myr co-transfected, transiently transfected HEK293 cells, mean of at least three independent experiments
T3 construct: expressed in transfected cells; host or cells: HEK293, transient
T3 sequence (P49146 1-381): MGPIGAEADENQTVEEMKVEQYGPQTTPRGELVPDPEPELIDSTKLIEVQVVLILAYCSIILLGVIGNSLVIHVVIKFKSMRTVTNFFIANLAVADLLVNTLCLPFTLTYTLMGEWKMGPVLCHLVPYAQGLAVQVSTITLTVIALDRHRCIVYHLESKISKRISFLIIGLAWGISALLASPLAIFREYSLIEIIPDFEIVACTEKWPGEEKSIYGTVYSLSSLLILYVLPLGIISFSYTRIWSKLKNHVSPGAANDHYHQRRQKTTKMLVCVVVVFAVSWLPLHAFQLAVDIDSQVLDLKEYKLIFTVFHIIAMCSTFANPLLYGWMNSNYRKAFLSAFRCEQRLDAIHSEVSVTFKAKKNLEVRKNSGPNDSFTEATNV
Protocol: as §1, §2

Y4R = target: T4, Y4R (Homo sapiens, UniProt P50391); experiment: IP accumulation assay, chimeric GαΔ6qi4myr, Y4R; assay type: cell-based; conditions: chimeric GαΔ6qi4myr co-transfected, transiently transfected HEK293 cells, mean of at least three independent experiments
T4 construct: expressed in transfected cells; host or cells: HEK293, transient
T4 sequence (P50391 whole entry): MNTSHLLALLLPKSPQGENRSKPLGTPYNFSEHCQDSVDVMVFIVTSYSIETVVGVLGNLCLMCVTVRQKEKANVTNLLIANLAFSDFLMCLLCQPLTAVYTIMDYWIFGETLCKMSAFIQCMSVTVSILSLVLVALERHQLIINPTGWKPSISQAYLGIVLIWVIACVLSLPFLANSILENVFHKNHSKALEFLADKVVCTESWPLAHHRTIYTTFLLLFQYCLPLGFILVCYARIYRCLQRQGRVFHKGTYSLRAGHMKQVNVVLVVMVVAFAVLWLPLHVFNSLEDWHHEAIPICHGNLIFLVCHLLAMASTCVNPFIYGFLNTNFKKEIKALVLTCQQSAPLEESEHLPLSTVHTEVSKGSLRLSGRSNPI
Protocol: as §1, §2

Substance | solubility of crude peptide [1] | IP accumulation, x-fold of basal (mean), QRFPR# (QRFPR; 0.1 µM peptide) | IP accumulation, x-fold of basal (mean), QRFPR# (QRFPR; 10 µM peptide) | IP accumulation, x-fold of basal (mean), PrRPR# (PrRPR; 0.1 µM peptide) | IP accumulation, x-fold of basal (mean), PrRPR# (PrRPR; 10 µM peptide) | solubility of crude peptide at basic pH [1] | IP accumulation, x-fold of basal (mean), Y2R (Y2R; 0.1 µM peptide) | IP accumulation, x-fold of basal (mean), Y2R (Y2R; 10 µM peptide) | IP accumulation, x-fold of basal (mean), Y4R (Y4R; 0.1 µM peptide) | IP accumulation, x-fold of basal (mean), Y4R (Y4R; 10 µM peptide)
APLEGFEDMSGFLRTIDGIQKPRF-NH2 [FLP-33, NPY-like C. elegans FLP with C-terminal RxRF/Ya signature] | partly insoluble | 0.91 x-fold of basal | 0.80 x-fold of basal | 0.91 x-fold of basal | 0.88 x-fold of basal |  |  |  |  | 
EASAFGDIIGELKGKGLGGRMRF-NH2 [FLP-27, NPY-like C. elegans FLP with C-terminal RxRF/Ya signature] | partly insoluble | 0.87 x-fold of basal | 0.95 x-fold of basal | 0.93 x-fold of basal | 0.91 x-fold of basal |  |  |  |  | 
GLGPRPLRF-NH2 [FLP-21] | partly insoluble |  |  |  |  | improved solubility at basic pH |  |  |  | 
NPENDTPFGTMRF-NH2 [FLP-3-4, C. elegans FMRFamide-like peptide, C-terminally amidated, synthesized by SPPS] | partly insoluble | 1.42 x-fold of basal | 1.52 x-fold of basal | 1.86 x-fold of basal | 0.96 x-fold of basal | improved solubility at basic pH | 1.01 x-fold of basal | 0.70 x-fold of basal | 1.31 x-fold of basal | 1.29 x-fold of basal
RGPSGPLRF-NH2 [FLP-15-2] | partly insoluble |  |  |  |  | improved solubility at basic pH |  |  |  | 
SEVPGVLRF-NH2 [FLP-18-5] | partly insoluble |  |  |  |  | improved solubility at basic pH |  |  |  | 
TSGPLGNLAEELNGYSRKKGGFSFRF-NH2 [QRFP26, human pyroglutamylated RFamide peptide, 26 residues, reference compound] |  | 22.77 x-fold of basal | 24.26 x-fold of basal | 1.06 x-fold of basal | 1.91 x-fold of basal |  | 1.30 x-fold of basal | 10.62 x-fold of basal | 1.03 x-fold of basal | 1.42 x-fold of basal
